# Reference: EP4782449A1, “TRICYCLIC PYRIDINE COMPOUND ACTING AS SARM1 ENZYME ACTIVITY INHIBITOR, AND USE THEREOF” (Artivila (ShenZhen) Innovation Center, Ltd., priority 2023, dated 2025)
# Key:
# SARM1 = target: T1, SARM1 (Homo sapiens, UniProt Q6SZW1); experiment: In vitro biochemical assay for inhibiting SARM1 enzyme activity (PC6 fluorescence, NADase); conditions: full-length SARM1 from transfected HEK293 cells; 50 µM NAD, 50 µM PC6, 50 µM NMN activator; room temperature, 30 minutes; read-out: IC50
# T1 construct: inventors produced full-length SARM1 for NAD enzyme activity experiments, and used it for screening; His (C); made in house; host or cells: HEK293 cells, transient transfection; supernatant of digitonin lysate, no further purification described
# T1 sequence (Q6SZW1 28-724): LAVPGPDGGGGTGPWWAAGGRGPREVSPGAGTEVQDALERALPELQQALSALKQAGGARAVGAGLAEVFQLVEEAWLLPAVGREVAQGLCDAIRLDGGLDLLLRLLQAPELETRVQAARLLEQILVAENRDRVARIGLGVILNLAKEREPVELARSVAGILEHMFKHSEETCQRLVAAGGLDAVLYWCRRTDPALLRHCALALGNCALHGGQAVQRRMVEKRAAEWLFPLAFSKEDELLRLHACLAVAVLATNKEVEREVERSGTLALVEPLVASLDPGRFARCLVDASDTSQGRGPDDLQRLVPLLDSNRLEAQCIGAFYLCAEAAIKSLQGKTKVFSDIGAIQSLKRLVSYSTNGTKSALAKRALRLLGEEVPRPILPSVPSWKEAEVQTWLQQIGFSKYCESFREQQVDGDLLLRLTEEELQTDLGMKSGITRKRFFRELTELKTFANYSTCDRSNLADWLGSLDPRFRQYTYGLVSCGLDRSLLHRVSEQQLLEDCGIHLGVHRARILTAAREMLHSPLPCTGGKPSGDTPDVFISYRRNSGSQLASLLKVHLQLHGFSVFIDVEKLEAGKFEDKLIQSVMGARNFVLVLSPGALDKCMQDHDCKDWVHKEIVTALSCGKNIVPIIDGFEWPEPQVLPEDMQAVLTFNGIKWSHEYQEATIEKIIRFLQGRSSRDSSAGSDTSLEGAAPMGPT
# Outline: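 Lysate supernatant from HEK293 cells transfected 48 hours with His-tagged SARM1 was obtained by 100 μM digitonin lysis and preincubated with inhibitor 10 minutes at room temperature.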
# [1] = system: dorsal root ganglion explants; experiment: Axonal Wallerian degeneration assay in mouse DRG explant culture; type: cell-based, C57BL/6 male mice; conditions: 10 µM test compound, 2 hours pretreatment, axons transected, images at 0 hour and 24 hours
# Outline: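 Explants from 2-month-old male C57BL/6 mouse DRG were cultured 8 days in Neurobasal/B-27 with 10 ng/mL NGF. They were pretreated 2 h with 10 µM compound at 37°C, then axons were transected with a glass electrode. Axonal integrity was scored by script from bright-field images at 0 and 24 h.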
smiles,measurement,setting,value
CN1Cc2cnccc2-c2ccc(N3CCC(Cc4ccc(F)cc4)C3=O)cc2C1 (centres unmarked) [Compound 133],IC50,SARM1,100 to 1000 nM
same,Degree of Protection Against Axonal Wallerian Degeneration,[1],B (partial protection (B): 20% to 50%)
